From publication PMC4216756 (Clinical cancer research : an official journal of the …, 2014)
Values joined by “and” are separate entries in the source; they are usually repeats but may differ in a detail not shown here. Equal entries are not always repeated. Where two headings read alike, the source gives them in different places.

Key:
[1] = tested on: γ-H2AX expression on CD3+ and CD14+ cells; experiment: DNA damage: γ-H2AX expression in PBMC; assay type: in vivo, human
Thymoma = experiment: Phase I/II efficacy; assay type: in vivo, human; conditions: belinostat + PAC
thymic epithelial tumors = experiment: Phase I/II efficacy; assay type: in vivo, human
[2] = cited from earlier work
TETs = conditions: single-agent belinostat, cited from earlier work
[3] = Plasma pharmacokinetics of belinostat, 48-hr CIVI, cycle 1; assay type: in vivo, human; conditions: for clearance / half-life: human, plasma, intravenous; for half-life: cycle 1, n=25
[4] = tested on: patients with advanced thymic epithelial tumors; experiment: Safety: treatment-related adverse events; assay type: in vivo, human
[5] = tested on: protein acetylation, tubulin acetylation, p21 in PBMC; experiment: Protein/tubulin acetylation and p21 in PBMC by multiparametric flow cytometry; assay type: in vivo, human
[6] = tested on: patients with advanced thymic epithelial tumors; experiment: Phase I dose escalation; assay type: in vivo, human
Thymic carcinoma = experiment: Phase I/II efficacy; assay type: in vivo, human; conditions: belinostat + PAC
[7] = tested on: Regulatory T cells and CD8+ T cells; experiment: T cell subsets and immune markers in PBMC by flow cytometry; assay type: in vivo, human
[8] = 23 evaluable patients treated at dose level 1
[9] = belinostat + PAC, Total, 25 evaluable patients
[10] = Dose level 1 (n=24), belinostat 1000 mg/m^2 + PAC
[11] = Dose level 2 (n=2), belinostat 2000 mg/m^2 + PAC
[12] = following belinostat plus chemotherapy, p<0.0001

O=C(/C=C/c1cccc(S(=O)(=O)Nc2ccccc2)c1)NO [belinostat, N-hydroxy-3-(phenylsulphamoylphenyl) acrylamide]
γ-H2AX expression on CD3+ cells ([1]; after belinostat alone, p=0.033): increased | γ-H2AX expression on CD14+ cells ([1]; after belinostat alone, p=0.41): did not increase significantly | γ-H2AX expression on CD14+ cells ([1]; after belinostat plus chemotherapy, p=0.012): increased | γ-H2AX expression on CD3+ cells ([1]; following belinostat plus chemotherapy, p=0.01): increased | Median DOR (Thymoma): not reached | Median overall survival (Thymoma): Not reached | Median progression-free survival (Thymoma): Not reached | Complete response (Thymoma; 11 evaluable patients): 1 (9) n (%) | Disease control rate (95% confidence interval) (Thymoma; 11 evaluable patients): 100 (71.5–100.0) % | Objective Response Rate (95% confidence interval) (Thymoma; 11 evaluable patients): 64 (30.8–89.1) % | Partial Response (Thymoma; 11 evaluable patients): 6 (55) n (%) | Progressive Disease (Thymoma; 11 evaluable patients): 0 n (%) | Stable Disease (Thymoma; 11 evaluable patients): 4 (36) n (%) | Patients who underwent R0 or R1 resection (thymic epithelial tumors; 9 of 23 assessed after at least 4 cycles of belinostat + PAC): 39% | Patients with PD (thymic epithelial tumors; [8]): 4% | Patients with PRs (thymic epithelial tumors; [8]): 30% | Patients with CR (thymic epithelial tumors; 23 evaluable patients treated at dose level 1 (belinostat 1000 mg/m^2 + PAC)): 4% | Patients with no evidence of disease at the time of reporting (thymic epithelial tumors; Six of 23, after multimodality therapy): 26% | Median progression-free survival (thymic epithelial tumors; belinostat + PAC, Total): 9 months and 9.0 months | Complete response (thymic epithelial tumors; [9]): 1 (4) n (%) | Disease control rate (95% confidence interval) (thymic epithelial tumors; [9]): 96 (79.7 –99.9) % | Objective Response Rate (95% confidence interval) (thymic epithelial tumors; [9]): 40 (21.1 –61.3) % | Partial Response (thymic epithelial tumors; [9]): 9 (36) n (%) | Progressive Disease (thymic epithelial tumors; [9]): 1 (4) n (%) | Stable Disease (thymic epithelial tumors; [9]): 14 (56) n (%) | Median overall survival (thymic epithelial tumors; belinostat + PAC, Total, median potential follow up 20.5 months): 28.5 months | Elimination half-life ([2]; administered IV with paclitaxel and carboplatin): 102 min | Elimination half-life ([2]; administration over 30 minutes): 31.2 to 32.4 min | Elimination half-life ([2]; orally alone): 114 min | Patients with stable disease (TETs; of 41 patients): 25 patients | Median overall survival (TETs; overall population): 19.1 months | Median time to progression (TETs; overall population): 5.8 months | Responses in patients with thymic carcinoma (TETs): no responses | Plasma concentration of belinostat during the 48-hour infusion ([3]; 250 mg/m^2 per 12-h infusion, with PAC): around 1 μM | clearance ([3]; Clearance, range, 48-hr CIVI, cycle 1, all patients): 683 to 13200 mL/min | clearance ([3]; Clearance, range, after excluding outlier patient): 683 to 3350 mL/min | half-life ([3]; Half-life, range, 48-hr CIVI): 12 to 54.6 min | clearance ([3]; Mean clearance, 48-hr CIVI, cycle 1, all patients): 2220 mL/min | half-life ([3]; Mean half-life, 48-hr CIVI): 28.2 min | clearance ([3]; Total systemic clearance, the only patient with high serum creatinine (1.43 mg/dL)): 1770 mL/min | Differences in CMAX, AUCINF, clearance and half-life between genders and races ([3]; in vivo): no statistically significant differences | Alanine aminotransferase increased, Grade 3/4 (%) ([4]; All dose levels (n= 26)): 4 (15) n (%) | Aspartate aminotransferase increased, Grade 3/4 (%) ([4]; All dose levels (n= 26)): 6 (23) n (%) | Atrial fibrillation, Grade 3/4 (%) ([4]; All dose levels (n= 26)): 1 (4) n (%) | Ejection fraction decreased, Grade 3/4 (%) ([4]; All dose levels (n= 26)): 1(4) n (%) | Electrocardiogram QT corrected interval prolonged, Grade 3/4 (%) ([4]; All dose levels (n= 26)): 1(4) n (%) | Enterocolitis infectious, Grade 3/4 (%) ([4]; All dose levels (n= 26)): 2(8) n (%) | Febrile neutropenia, Grade 3/4 (%) ([4]; All dose levels (n= 26)): 3(12) n (%) | Hearing impaired, Grade 3/4 (%) ([4]; All dose levels (n= 26)): 1(4) n (%) | Hypermagnesemia, Grade 3/4 (%) ([4]; All dose levels (n= 26)): 3 (12) n (%) | Hypoalbuminemia, Grade 3/4 (%) ([4]; All dose levels (n= 26)): 2(8) n (%) | Hypocalcemia, Grade 3/4 (%) ([4]; All dose levels (n= 26)): 2(8) n (%) | Hypokalemia, Grade 3/4 (%) ([4]; All dose levels (n= 26)): 4(15) n (%) | Hypomagnesemia, Grade 3/4 (%) ([4]; All dose levels (n= 26)): 1(4) n (%) | Hyponatremia, Grade 3/4 (%) ([4]; All dose levels (n= 26)): 1(4) n (%) | Hypophosphatemia, Grade 3/4 (%) ([4]; All dose levels (n= 26)): 6(23) n (%) | Limb edema, Grade 3/4 (%) ([4]; All dose levels (n= 26)): 1 (4) n (%) | Lung infection, Grade 3/4 (%) ([4]; All dose levels (n= 26)): 2(8) n (%) | Lymphocyte count decreased, Grade 3/4 (%) ([4]; All dose levels (n= 26)): 26 (100) n (%) | Neutrophil count decreased, Grade 3/4 (%) ([4]; All dose levels (n= 26)): 21 (81) n (%) | Non-cardiac chest pain, Grade 3/4 (%) ([4]; All dose levels (n= 26)): 1(4) n (%) | Pain in extremity, Grade 3/4 (%) ([4]; All dose levels (n= 26)): 1(4) n (%) | Platelet count decreased, Grade 3/4 (%) ([4]; All dose levels (n= 26)): 12 (46) n (%) | Thromboembolic event, Grade 3/4 (%) ([4]; All dose levels (n= 26)): 3(12) n (%) | Tumor lysis syndrome, Grade 3/4 (%) ([4]; All dose levels (n= 26)): 1(4) n (%) | Urinary tract infection, Grade 3/4 (%) ([4]; All dose levels (n= 26)): 1(4) n (%) | White blood cell decreased, Grade 3/4 (%) ([4]; All dose levels (n= 26)): 24 (92) n (%) | Alanine aminotransferase increased, Grade 3/4 [4, 10]: 3 | Aspartate aminotransferase increased, Grade 3/4 [4, 10]: 4 | Ejection fraction decreased, Grade 3/4 [4, 10]: 1 | Electrocardiogram QT corrected interval prolonged, Grade 3/4 [4, 10]: 1 | Enterocolitis infectious, Grade 3/4 [4, 10]: 1 | Febrile neutropenia, Grade 3/4 [4, 10]: 3 | Hearing impaired, Grade 3/4 [4, 10]: 1 | Hypermagnesemia, Grade 3/4 [4, 10]: 3 | Hypoalbuminemia, Grade 3/4 [4, 10]: 1 | Hypomagnesemia, Grade 3/4 [4, 10]: 1 | Hypophosphatemia, Grade 3/4 [4, 10]: 4 | Lung infection, Grade 3/4 [4, 10]: 2 | Lymphocyte count decreased, Grade 3/4 [4, 10]: 24 | Neutrophil count decreased, Grade 3/4 [4, 10]: 19 | Non-cardiac chest pain, Grade 3/4 [4, 10]: 1 | Pain in extremity, Grade 3/4 [4, 10]: 1 | Platelet count decreased, Grade 3/4 [4, 10]: 10 | Thromboembolic event, Grade 3/4 [4, 10]: 3 | Urinary tract infection, Grade 3/4 [4, 10]: 1 | White blood cell decreased, Grade 3/4 [4, 10]: 22 | Alanine aminotransferase increased, Grade 3/4 [4, 11]: 1 | Aspartate aminotransferase increased, Grade 3/4 [4, 11]: 2 | Atrial fibrillation, Grade 3/4 [4, 11]: 1 | Enterocolitis infectious, Grade 3/4 [4, 11]: 1 | Hypoalbuminemia, Grade 3/4 [4, 11]: 1 | Hypophosphatemia, Grade 3/4 [4, 11]: 2 | Lymphocyte count decreased, Grade 3/4 [4, 11]: 2 | Neutrophil count decreased, Grade 3/4 [4, 11]: 2 | Platelet count decreased, Grade 3/4 [4, 11]: 2 | Tumor lysis syndrome, Grade 3/4 [4, 11]: 1 | White blood cell decreased, Grade 3/4 [4, 11]: 2 | Patients requiring dose reductions of PAC due to toxicities ([4]; belinostat + PAC, n=26): 35% | Patients who discontinued treatment due to adverse events ([4]; belinostat + PAC, n=26): Four | Patients with QTc prolongation ([4]; belinostat + PAC, n=26, any grade, one grade 3 event): 35% | Patients with increase in total protein hyperacetylation of CD3+ cells ([5]; 21 of 23 patients, after belinostat): 91% | Increase in total protein hyperacetylation of CD3+ cells, median ([5]; after belinostat): 2.5 fold | p21 expression in CD14+ cells ([5]; after belinostat alone, p=0.019): increased | PBMC acetylated tubulin ([5]; after belinostat, p<0.0001): increased significantly | Total protein hyperacetylation of CD3+ cells ([5]; after belinostat, p<0.0001): increased significantly | Total protein hyperacetylation of CD14+ cells ([5]; after belinostat, p= 0.026): increased only marginally | p21 expression in CD14+ cells [5, 12]: increased | PBMC acetylated tubulin ([5]; following belinostat plus chemotherapy, p=0.0001): increased significantly | Dose-limiting toxicities ([6]; 2000 mg/m^2 belinostat (dose level 2) with PAC, in two patients): grade 3 nausea and diarrhea and grade 4 neutropenia and thrombocytopenia | Maximum-tolerated dose (MTD) of belinostat ([6]; CIVI over 48 hours with PAC, 3-week cycles): 1000 mg/m^2 | Median overall survival (Thymic carcinoma): 21.4 months | Median progression-free survival (Thymic carcinoma): 7.2 months | Complete response (Thymic carcinoma; 14 evaluable patients): 0 n (%) | Disease control rate (95% confidence interval) (Thymic carcinoma; 14 evaluable patients): 93 (66.1–99.8) % | Objective Response Rate (95% confidence interval) (Thymic carcinoma; 14 evaluable patients): 21 (4.7–50.8) % | Partial Response (Thymic carcinoma; 14 evaluable patients): 3 (21) n (%) | Progressive Disease (Thymic carcinoma; 14 evaluable patients): 1 (7) n (%) | Fraction of CTLA4-expressing Tregs ([7]; after belinostat alone, p=0.0078): increased significantly | Fraction of CTLA4-expressing Tregs ([7]; after belinostat plus chemotherapy, p<0.0001): increased significantly | TIM3+ CD8+T cells ([7]; following belinostat alone vs baseline, p < 0.0001): decreased significantly | PD-1+ CD8+ T cells ([7]; following belinostat alone vs baseline, p=0.01): decreased significantly | Number of Tregs ([7]; following belinostat alone, p=0.0009): decreased significantly | Number of Tregs [7, 12]: decreased significantly | TIM3+ CD8+T cells ([7]; following belinostat with chemotherapy vs baseline, p <0.0001): decreased significantly | Median progression-free survival ([7]; patients with greater decline in Tregs post-combination therapy): not reached | Median progression-free survival ([7]; patients with greater decline in post-combination therapy TIM3+ CD8+T cells): not reached | Median OS ([7]; patients with higher pre-treatment CTLA4-expressing Tregs): 18.8 months | Median progression-free survival ([7]; patients with lesser decreases in TIM3+ CD8+T cells): 7.8 months | Median OS ([7]; patients with lower pre-treatment CTLA4-expressing Tregs): 37.5 months
